PMC10823514, “Target Identification of a Class of Pyrazolone Protein Aggregation Inhibitor Therapeutics for Amyotrophic Lateral Sclerosis” (ACS Central Science, 2023)

What was measured:
[1] = molecular target: T1, 14-3-3-E (Homo sapiens, UniProt P62258); test: Fluorescent thermal shift assay (FTSA) with 14-3-3-E; assay type: binding; details: for Tm shift (ΔTm): SYPRO orange
T1 construct: His-tag (TEV-cleavable) (cleaved yes); host or cells: E. coli (BL21)
T1 sequence (P62258 1-255): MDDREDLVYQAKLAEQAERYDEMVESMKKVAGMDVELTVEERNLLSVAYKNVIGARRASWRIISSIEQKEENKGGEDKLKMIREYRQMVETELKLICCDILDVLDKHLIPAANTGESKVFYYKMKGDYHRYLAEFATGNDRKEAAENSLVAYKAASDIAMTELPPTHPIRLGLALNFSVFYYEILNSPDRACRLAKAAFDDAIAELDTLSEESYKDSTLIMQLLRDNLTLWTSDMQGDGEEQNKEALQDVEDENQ
Procedure: (§1) His-tagged 14-3-3-E, B, and H plasmids were purchased from Addgene (plasmid ID# 31562, 39128, and 38814, respectively). E. coli (BL21) were transformed with extracted plasmids via heat shock and plated on selected media. Individual colonies were selected, grown, and sequenced to confirm gene presence. 1 L cultures were grown to an OD600 of 0.6 at 37 °C and 220 rpm. Protein expression was induced with 1 mM IPTG and expressed for 12 h at 100 rpm and room temperature (approximately 25 °C). Cells were spun down at 4000 rpm for 15 min at 4 °C and resuspended in lysis buffer containing 50 mM Tris (7.4), 150 mM NaCl, 0.08% DDM, 5 mM imidazole, and 5% glycerol (with an EDTA-free complete mini protease inhibitor cocktail). Cells were lysed via sonication, and the lysate was separated from cell debris by centrifugation at 15,000 rpm, 4 °C, for 45 min. The His-tagged protein was purified using QIAGEN Ni-NTA superflow columns, and the His-tag was removed with TEV protease. His-tag-removed proteins were further purified by size exclusion chromatography. His tag removal and size exclusion chromatography purification were done at the Northwestern University Protein Production core. 14-3-3-Q and 14-3-3-G proteins were purchased from Abchem (catalog numbers ab85270 and ab53869, respectively).
All of the FTSA experiments were conducted in HEPES buffer (60 mM HEPES, 150 mM NaCl, pH 7.4). A DMSO balanced 8-point dilution series of the compound in HEPES buffer was prepared in a 96-well assay plate (200, 100, 50, 25, 12.5, 6.25, 3.125, and 0 μM). Then, a 5 μL volume of the dilution series was transferred to a 384-well PCR plate using a multichannel pipet, and the plate was centrifuged at 1000 rpm for 2 min (the plate was covered with an adhesive aluminum seal). The protein sample was premixed at a concentration of 0.04 μg/μL with a 5X concentration of SYPRO orange in HEPES buffer, and a 5 μL aliquot was added to the compound wells. The plate was covered with an optical adhesive seal and was shaken for 2 min, followed by centrifugation at 1000 rpm for 2 min. The thermal scan was performed from 20 to 90 °C with a temperature gradient of 0.5 °C/min. The fluorescence was measured on a Bio-Rad CFX384 real-time PCR instrument.

[2] = molecular target: T2, 14-3-3-H (Homo sapiens, UniProt Q04917); test: Fluorescent thermal shift assay (FTSA) with 14-3-3-H; assay type: binding
T2 construct: His-tag (TEV-cleavable) (cleaved yes); host or cells: E. coli (BL21)
T2 sequence (Q04917 1-246): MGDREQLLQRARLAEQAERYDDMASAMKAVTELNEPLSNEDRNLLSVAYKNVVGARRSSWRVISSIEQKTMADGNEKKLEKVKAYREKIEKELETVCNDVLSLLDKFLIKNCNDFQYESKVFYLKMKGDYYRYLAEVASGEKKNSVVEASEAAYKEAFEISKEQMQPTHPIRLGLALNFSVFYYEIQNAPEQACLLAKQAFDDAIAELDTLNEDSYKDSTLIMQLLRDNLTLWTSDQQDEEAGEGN
Procedure: as §1, with “14-3-3-Q and 14-3-3-G proteins were purchased from Abchem (catalog numbers ab85270 and ab53869, respectively).” left out
(§2) All of the FTSA experiments were conducted in HEPES buffer (60 mM HEPES, 150 mM NaCl, pH 7.4). […] The fluorescence was measured on a Bio-Rad CFX384 real-time PCR instrument.

[3] = molecular target: T3, 14-3-3-Q (Homo sapiens, UniProt P27348); test: Fluorescent thermal shift assay (FTSA) with 14-3-3-Q; assay type: binding
T3 construct: purchased Abchem (so in the source)
T3 sequence (P27348 1-245): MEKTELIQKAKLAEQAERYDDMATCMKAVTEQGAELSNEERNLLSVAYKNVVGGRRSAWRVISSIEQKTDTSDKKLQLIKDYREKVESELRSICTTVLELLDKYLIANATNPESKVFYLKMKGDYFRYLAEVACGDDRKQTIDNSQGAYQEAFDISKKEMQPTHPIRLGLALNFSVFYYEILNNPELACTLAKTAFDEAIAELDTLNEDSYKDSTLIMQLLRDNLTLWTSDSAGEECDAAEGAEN
Procedure: as §1, with “14-3-3-Q and 14-3-3-G proteins were purchased from Abchem (catalog numbers ab85270 and ab53869, respectively).” left out
as §2

[4] = system: transgenic mice; details: earlier work of the authors; cited from earlier work
[5] = fit of ΔTm versus concentration, n = 2, read-out: Kd^app

## C#CCN(Cc1cc(=O)[nH][nH]1)Cc1c(F)c(F)c(N=[N+]=[N-])c(F)c1F [PRAPP, 5-(((4-Azido-2,3,5,6-tetrafluorobenzyl)(prop-2-yn-1-yl)amino)methyl)-1,2-dihydro-3H-pyrazol-3-one]
[1]
  Tm shift (ΔTm): 2.5 °C

## O=c1cc(COc2cc(Cl)cc(Cl)c2)[nH][nH]1 [P2]
[2]
  binding (Tm shift): no binding
[1]
  Tm shift (ΔTm): 3.2 °C
[1]; [5]
  Kd: 2.85 µM
[3]; SYPRO orange
  Tm shift (ΔTm): 1.1 °C
[3]; [5]
  Kd: 4.32 µM
[4]
  increase of the median survival rate: 13%
